Patent US7317025B2, “Non-peptidic NPY Y2 receptor inhibitors” (Johnson & Johnson Pharmaceutical Research & Development, LLC, priority 2003, dated 2008)
pIC50: −log10 of the molar value. Read-outs that look alike come from different tables or passages of the source.

Biological target: T1, Y2 receptors (Homo sapiens, UniProt P49146)
T1 construct: KAN-Ts endogenously expressing Y2 receptors; endogenous in cells; host or cells: KAN-Ts cells (membrane preparation)
T1 sequence (P49146 1-381): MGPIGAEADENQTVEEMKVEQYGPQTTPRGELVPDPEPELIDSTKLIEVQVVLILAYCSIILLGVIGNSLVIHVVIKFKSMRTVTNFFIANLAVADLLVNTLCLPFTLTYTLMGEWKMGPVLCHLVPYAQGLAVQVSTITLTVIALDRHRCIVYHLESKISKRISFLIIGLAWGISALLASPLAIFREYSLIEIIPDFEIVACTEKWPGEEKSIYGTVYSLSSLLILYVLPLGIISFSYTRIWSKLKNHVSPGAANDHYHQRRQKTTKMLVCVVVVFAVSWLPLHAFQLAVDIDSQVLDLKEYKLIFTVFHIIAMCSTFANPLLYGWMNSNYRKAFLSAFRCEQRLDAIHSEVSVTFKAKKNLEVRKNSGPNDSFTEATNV
Experiment: Radioligand binding assay, [125I]PYY, KAN-Ts membranes
Method: Radioligand Binding Assay
KAN-Ts endogenously expressing Y2 receptors were used for the radioligand binding assay. Cells were grown to confluence on 150 cm^2 tissue culture plates, washed with phosphate-buffered saline (PBS), and scraped into 50 mL tubes. After centrifugation, the supernatant was aspirated, and the pellets frozen and stored at −80° C. Thawed pellets were homogenized with a polytron tissue grinder for 15 sec in 20 mM Tris-HCl, 5 mM EDTA. The homogenate was centrifuged at 800×g for 5 min and the collected supernatant was recentrifuged at 25000×g for 25 min. The resulting pellet was resuspended in binding buffer (20 mM HEPES, 120 mM NaCl, 0.22 mM KH2PO4, 1.3 mM CaCl2, 0.8 mM MgSO4). Membranes were incubated with [^125I]PYY (80 pM) in the presence or absence of test compound for 1 h at rt. The reaction was stopped by filtration through GF/C filter plates pre-soaked in 0.3% polyethylenimine and subsequently washed with Tris 50 mM, 5 mM EDTA buffer. Plates were dried for 1 h in a 55° C. oven, scintillation fluid was added and the radioactivity was counted in a Packard TopCount. Specific binding to the NPY receptor subtypes was determined by radioactivity that was bound in the presence of […] NPY. Each binding experiment was repeated three to eight times, each in duplicate. IC50 values (i.e. concentration of unlabelled peptide or antagonist required to compete for 50% of specific binding to the radioligand) were calculated using the GraphPad Prism software (GraphPad Software Inc., San Diego Calif.) with a fit to a sigmoidal dose response curve. Data were expressed as pIC50 values where pIC50=−log IC50.

[1] = membranes of KAN-Ts cells endogenously expressing Y2 receptors, [125I]PYY (80 pM), 1 h at rt

Row | Structure (SMILES) | pIC50 | pIC50 [1]
1 | CC(=O)N1CCc2ccc(N(C(=O)/C=C/c3ccccc3)C3CCN(C(=O)c4ccccc4)CC3)cc21 [Example 39, trans-N-(1-Acetyl-2,3-dihydro-1H-indol-6-yl)-N-(1-benzoyl-piperidin-4-yl)-3-phenyl-acrylamide] | 4.54 | 
2 | CC(=O)N1CCc2ccc(N(C(=O)/C=C/c3ccccc3)C3CCCN(Cc4ccccc4)C3)cc21 (stereo not drawn) [Example 45, trans-N-(1-Acetyl-2,3-dihydro-1H-indol-6-yl)-N-(1-benzyl-piperidin-3-yl)-3-phenyl-acrylamide] |  | 4.80
3 | C=CCN(CCCN(C(=O)/C=C/c1ccccc1)c1ccc2c(c1)N(C(C)=O)CC2)Cc1ccccc1 [Example 48, trans-N-(1-Acetyl-2,3-dihydro-1H-indol-6-yl)-N-[3-(allyl-benzyl-amino)-propyl]-3-phenyl-acrylamide] |  | 4.92
4 | CC(=O)N1CCc2ccc(N(CCCNCc3ccccc3)C(=O)/C=C/c3ccccc3)cc21 [Example 47, trans-N-(1-Acetyl-2,3-dihydro-1H-indol-6-yl)-N-(3-benzylamino-propyl)-3-phenyl-acrylamide] |  | 4.92
5 | CC(=O)N1CCc2ccc(N(C(=O)/C=C/c3ccccc3)C3CCN(Cc4ccccc4)C3)cc21 (stereo not drawn) [Example 46, trans-N-(1-Acetyl-2,3-dihydro-1H-indol-6-yl)-N-(1-benzyl-pyrrolidin-3-yl)-3-phenyl-acrylamide] |  | 4.74
